Measurements published in PMC9580147, “A novel C-type lectin from Trichinella spiralis mediates larval invasion of host intestinal epithelial cells” (Veterinary Research, 2022).

Target: T1, rTsCTL (TsCTL, Trichinella spiralis type C lectin) (Trichinella spiralis, UniProt A0A0V1BZI5)
T1 construct: gene T01_9679; N-terminal His-tag (pQE-80L), E. coli BL21 (DE3), Ni-NTA purified; 208 aa full length, 24 kDa; C-type lectin domain residues 24-156
Experiment: inhibition of haemagglutination of mouse erythrocytes by rTsCTL
Assay type: biochemical
Details: rTsCTL 100 ug/mL; 2% mouse erythrocytes; room temperature, 1 h; Ca2+-dependent lectin; TBS pH 8.0; presumed carbohydrate recognition domain

T1 sequence (A0A0V1BZI5 entry or part of it): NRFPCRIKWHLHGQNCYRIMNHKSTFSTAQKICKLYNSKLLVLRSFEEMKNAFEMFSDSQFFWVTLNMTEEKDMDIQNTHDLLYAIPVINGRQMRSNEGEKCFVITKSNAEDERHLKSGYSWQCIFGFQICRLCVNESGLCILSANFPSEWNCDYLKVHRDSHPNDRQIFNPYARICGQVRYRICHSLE

Q: For `OC[C@H]1OC(O)[C@@H](O)[C@@H](O)[C@@H]1O` (stereo partly shown) [mannose], which minimum inhibitory dose is on record?
A: 100 mM
